Where a SMILES comes first, the peptide text is derived from it. [ ]: non-standard residue; d: D form. The star is where a group is joined. ξ: configuration not given here. Palmitoyl = CCCCCCCCCCCCCCCC(=O)*; ξF = NC(Cc1ccccc1)C(=O)O
Assay: In vivo imaging of small animals, entry into vitreous humor
Parameters: species or system mouse
Conditions: eye drops (10 μL, 20 μM, three times at 1 h intervals) and vitreous injection (1 μl, 20 μM)

| entry into the vitreous humor of mice | SMILES |
| --- | --- |
| entered the vitreous humor | CCCCCCCCCCCCCCCC(=O)NC(Cc1ccccc1)C(=O)N[C@@H](Cc1ccccc1)C(=O)N[C@H](C(=O)N[C@@H](CC(C)C)C(=O)N[C@@H](CCCCN)C(=O)N[C@@H](CCCCN)C(=O)N[C@@H](CCC(N)=O)C(=O)N[C@@H](CCCCN)C(=O)N[C@@H](CCCNC(=N)N)C(=O)N1CCC[C@H]1C(=O)N[C@@H](CCCNC(=N)N)C(=O)N[C@@H](Cc1c[nH]cn1)C(=O)O)C(C)C (stereo in doubt) [FH, hexadecanoyl-FFVLK-KQKRPRH] |
| entered the vitreous humor | CCCCCCCCCCCCCCCC(=O)NC(Cc1ccccc1)C(=O)N[C@@H](Cc1ccccc1)C(=O)N[C@H](C(=O)N[C@@H](CC(C)C)C(=O)N[C@@H](CCCCN)C(=O)N[C@@H](CCCCN)C(=O)N[C@@H](CC(N)=O)C(=O)N[C@@H](CCCCN)C(=O)N[C@@H](C)C(=O)N[C@@H](C)C(=O)N[C@@H](CCCCN)C(=O)NCC(=O)O)C(C)C (some centres unmarked) [FG] (Palmitoyl-[ξF]FVLKKNKAAKG-OH) |

Source: patent US12297296B2, “Nano small peptide and its use in preparation of drugs for treating and preventing fundus vascular diseases” (FUTU Biotech Co., Ltd., priority 2021, dated 2025)
